# Measurements from patent publication US20090093633A1, “Organic Compounds” (Novartis AG, priority 2006, published 2009).
# Structures can show the parent of a compound that is named as a salt.
# Biological target: adenosine A2A receptor (Homo sapiens, UniProt P29274)
# Experiment: adenosine A2A receptor agonist assay (method of Murphree et al, Molecular Pharmacology 61, 455-462 (2002))
# Type: binding
# Conditions: method of L. J. Murphree et al, Mol. Pharmacol. 61, 455-462 (2002)
# Text: Compounds of formula I and their pharmaceutically acceptable salts are useful as pharmaceuticals. In particular, they activate the adenosine A2A receptor, i.e. they act as A2A receptor agonists.
# adenosine A2A receptor, sequence (P29274 whole entry): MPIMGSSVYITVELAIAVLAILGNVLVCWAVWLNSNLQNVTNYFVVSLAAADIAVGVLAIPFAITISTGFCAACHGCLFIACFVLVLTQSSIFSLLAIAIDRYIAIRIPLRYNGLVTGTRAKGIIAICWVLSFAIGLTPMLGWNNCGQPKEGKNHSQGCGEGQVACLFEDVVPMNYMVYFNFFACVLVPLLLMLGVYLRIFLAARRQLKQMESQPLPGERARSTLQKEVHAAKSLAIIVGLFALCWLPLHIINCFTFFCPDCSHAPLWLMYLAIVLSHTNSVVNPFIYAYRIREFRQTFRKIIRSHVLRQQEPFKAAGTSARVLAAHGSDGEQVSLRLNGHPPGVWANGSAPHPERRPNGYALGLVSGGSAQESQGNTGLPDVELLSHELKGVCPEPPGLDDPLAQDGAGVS
row,Compound,Ki
1,"NC1CCC(Nc2nc(NCC(c3ccccc3)c3ccccc3)c3ncn([C@@H]4C[C@H](n5cccn5)[C@@H](O)[C@H]4O)c3n2)CC1 (stereo partly drawn) [Example 12, (1R,2S,3R,5S)-3-[2-(4-Amino-cyclohexylamino)-6-(2,2-diphenyl-ethylamino)-purin-9-yl]-5-pyrazol-1-yl-cyclopentane-1,2-diol]",272 nM
2,"O=C(N[C@@H]1CCNC1)c1nc(NCC(c2ccccc2)c2ccccc2)c2ncn([C@@H]3C[C@H](n4cc(CO)cn4)C(O)C3O)c2n1 (stereo partly drawn) [Example 64, 9-[(1R,4S)-2,3-Dihydroxy-4-(4-hydroxymethyl-pyrazol-1-yl)-cyclopentyl]-6-(2,2-diphenyl-ethylamino)-9H-purine-2-carboxylic acid (R)pyrrolidin-3-yl amide]",49 nM
3,"CCCCC#Cc1nc(N)c2ncn([C@@H]3C[C@H](n4cc(CO)cn4)[C@@H](O)[C@H]3O)c2n1 [Example 40, (1R,2S,3R,5S)-3-(6-Amino-2-hex-1-ynyl-purin-9-yl)-5-(4-hydroxymethyl-pyrazol-1-yl)-cyclopentane-1,2-diol]",67 nM
4,"Cc1cnn([C@H]2C[C@@H](n3cnc4c(NCC(c5ccccc5)c5ccccc5)nc(NC5CCC(N)CC5)nc43)[C@H](O)[C@@H]2O)c1 (stereo partly drawn) [Example 1, (1R,2S,3R,5S)-3-[2-(4-Amino-cyclohexylamino)-6-(2,2-diphenyl-ethylamino)-purin-9-yl]-5-(4-methyl-pyrazol-1-yl)-cyclopentane-1,2-diol trifluoroacetate]",197 nM
5,"CCCCC#Cc1nc(N)c2ncn([C@@H]3C[C@H](n4cc(CC)cn4)[C@@H](O)[C@H]3O)c2n1 [Example 37, (1R,2S,3R,5S)-3-(6-Amino-2-hex-1-ynyl-purin-9-yl)-5-(4-ethyl-pyrazol-1-yl)-cyclopentane-1,2-diol]",121 nM
6,"Cc1cnn([C@H]2C[C@@H](n3cnc4c(NCC(c5ccccc5)c5ccccc5)nc(NCCc5cnc[nH]5)nc43)[C@H](O)[C@@H]2O)c1 [Example 4, (1R,2S,3R,5S)-3-{6-(2,2-Diphenyl-ethylamino)-2-[2-(3H-imidazol-4-yl)-ethylamino]-purin-9-yl}-5-(4-methyl-pyrazol-1-yl)-cyclopentane-1,2-diol]",172 nM
7,"Cc1nnn([C@H]2C[C@@H](n3cnc4c(NCC(c5ccccc5)c5ccccc5)nc(N5CC[C@@H](NS(C)(=O)=O)C5)nc43)[C@H](O)[C@@H]2O)n1 [Example 67, N-{(R)-1-[9-[(1R,2S,3R,4S)-2,3-Dihydroxy-4-(5-methyl-tetrazol-2-yl)-cyclopentyl]-6-(2,2-diphenyl-ethylamino)-9H-purin-2-yl]pyrrolidin-3-yl}-methanesulfonamide]",71 nM
8,"Cc1cnn([C@H]2C[C@@H](n3cnc4c(N)nc(N[C@@H]5CCC[C@H]5OCc5ccccc5)nc43)[C@H](O)[C@@H]2O)c1 [Example 22, (1R,2S,3R,5S)-3-[6-Amino-2-((1R,2R)-2-benzyloxy-cyclopentylamino)-purin-9-yl]-5-(4-methyl-pyrazol-1-yl)-cyclopentane-1,2-diol]",138 nM
9,"CCc1cnn([C@H]2C[C@@H](n3cnc4c(NCCc5ccccc5)nc(NCCc5cn(CC)cn5)nc43)[C@H](O)[C@@H]2O)c1 [Example 54, (1R,2S,3R,5S)-3-{2-[2-(1-Ethyl-1H-imidazol-4-yl)-ethylamino]-6-phenethylamino-purin-9-yl}-5-(4-ethyl-pyrazol-1-yl)-cyclopentane-1,2-diol]",72 nM

# Stronger by Ki, values ahead:
row,Ki,Compound
1,3 nM,"CCc1cnn([C@H]2C[C@@H](n3cnc4c(NCC(c5ccccc5)c5ccccc5)nc(N5CC[C@@H](NC(=O)Nc6ccncc6)C5)nc43)[C@H](O)[C@@H]2O)n1 [Example 127, 1-((R)-1-{6-(2,2-Diphenyl-ethylamino)-9-[(1R,2S,3R,4S)-4-(4-ethyl-[1,2,3]triazol-2-yl)-2,3-dihydroxy-cyclopentyl]9H-purin-2-yl}-pyrrolidin-3-yl)-3-pyridin-4-yl-urea hydrochloride]"
2,20 nM,"O=C(NC1CCN(c2ccccn2)CC1)N[C@@H]1CCN(c2nc(NCC(c3ccccc3)c3ccccc3)c3ncn([C@@H]4C[C@H](n5cc(CO)cn5)[C@@H](O)[C@H]4O)c3n2)C1 [Example 77, 1-{(R)-1-[9-[(1R,2S,3R,4S)-2,3-Dihydroxy-4-(4-hydroxymethyl-pyrazol-1-yl)-cyclopentyl]-6-(2,2-diphenyl-ethylamino)-9H-purin-2-yl]-pyrrolidin-3-yl}-3-(3,4,5,6-tetrahydro-2H-[1,2′]bipyridinyl-4-yl)-urea trifluoroacetate]"
3,2 nM,"CN(C)[C@@H]1CCN(c2nc(NCC(c3ccccc3)c3ccccc3)c3ncn([C@@H]4C[C@H](n5cc(CO)cn5)[C@@H](O)[C@H]4O)c3n2)C1 [Example 96, (1R,2S,3R,5S)-3-[2-((R)-3-Dimethylamino-pyrrolidin-1-yl)-6-(2,2-diphenyl-ethylamino)-purin-9-yl]-5-(4-hydroxymethyl-pyrazol-1-yl)-cyclopentane-1,2-diol]"
4,40 nM,"O=C(NC1CCN(c2ccc(C(=O)O)cn2)CC1)N[C@@H]1CCN(c2nc(NCC(c3ccccc3)c3ccccc3)c3ncn([C@@H]4C[C@H](n5cc(CO)cn5)[C@@H](O)[C@H]4O)c3n2)C1 [Example 86, 4-(3-{(R)-1-[9-[(1R,2S,3R,4S)-2,3-Dihydroxy-4-(4-hydroxymethyl-pyrazol-1-yl)-cyclopentyl]-6-(2,2-diphenyl-ethylamino)-9H-purin-2-yl]-pyrrolidin-3-yl}-ureido)-3,4,5,6-tetrahydro-2H-[1,2′]bipyridinyl-5′-carboxylic acid trifluoroacetate]"
5,3 nM,"CCc1nnn([C@H]2C[C@@H](n3cnc4c(NCC(c5ccccc5)c5ccccc5)nc(N5CC[C@@H](NC(=O)Nc6cccc(-c7nnn[nH]7)c6)C5)nc43)[C@H](O)[C@@H]2O)n1 [Example 157, 1-((R)-1-{6-(2,2-Diphenyl-ethylamino)-9-[(1R,2S,3R,4S)-4-(5-ethyl-tetrazol-2-yl)-2,3-dihydroxy-cyclopentyl]-9H-purin-2-yl}-pyrrolidin-3-yl)-3-[3-(1H-tetrazol-5-yl)-phenyl]-urea hydrochloride]"
6,17 nM,"CCc1nnn([C@H]2C[C@@H](n3cnc4c(NCC(c5ccccc5)c5ccccc5)nc(N5CC[C@@H](NC(=O)NC6CCN(c7ccccn7)CC6)C5)nc43)[C@H](O)[C@@H]2O)n1 [Example 45, 1-((R)-1-{6-(2,2-Diphenyl-ethylamino)-9-[(1R,2S,3R,4S)-4-(5-ethyl-tetrazol-2-yl)-2,3-dihydroxy-cyclopentyl]-9H-purin-2-yl}-pyrrolidin-3-yl)-3-(3,4,5,6-tetrahydro-2H-[1,2′]bipyridinyl-4-yl)-urea]"
7,6 nM,"CCc1nnn([C@H]2C[C@@H](n3cnc4c(NCC(c5ccccc5)c5ccccc5)nc(N5CC[C@@H](NC(=O)NCc6ccnc7ccccc67)C5)nc43)[C@H](O)[C@@H]2O)n1 [Example 150, 1-((R)-1-{6-(2,2-Diphenyl-ethylamino)-9-[(1R,2S,3R,4S)-4-(5-ethyl-tetrazol-2-yl)-2,3-dihydroxy-cyclopentyl]-9H-purin-2-yl}-pyrrolidin-3-yl)-3 quinolin-4-ylmethyl-urea hydrochloride]"
8,5 nM,"CCc1nnn([C@H]2C[C@@H](n3cnc4c(NCC(c5ccc(O)cc5)c5ccc(O)cc5)nc(N5CC[C@@H](NC(=O)Nc6ccncc6)C5)nc43)[C@H](O)[C@@H]2O)n1 [Example 109, 1-((R)-1-{6-[2,2-Bis-(4-hydroxy-phenyl)-ethylamino]-9-[(1R,2S,3R,4S)-4-(5-ethyl-tetrazol-2-yl)-2,3-dihydroxy-cyclopentyl]-9H-purin-2-yl}-pyrrolidin-3-yl)-3-pyridin-4-yl-urea hydrochloride]"
9,10 nM,"CCn1cnc(CCNc2nc(NCC(c3ccccc3)c3ccccc3)c3ncn([C@@H]4C[C@H](n5cc(CO)cn5)[C@@H](O)[C@H]4O)c3n2)c1 [Example 47, (1R,2S,3R,5S)-3-{6-(2,2-Diphenyl-ethylamino)-2-[2-(1-ethyl-1H-imidazol-4-yl)-ethylamino]-purin-9-yl}-5-(4-hydroxymethyl-pyrazol-1-yl)-cyclopentane-1,2-diol]"
